Assay results reported in patent publication US20070128217A1 (priority 2003, published 2007).

Legend:
[1] = test system: recombinant human anti-SARS-CoV antibody 03-018; assay type: binding; parameters: Binding of antibody 03-018 to linear peptides of the N protein of SARS-CoV Urbani / Binding of antibody 03-018 to looped/cyclic peptides of the N protein of SARS-CoV Urbani: unit not given here
[2] = test system: antibodies in sera from SARS patients (sera 1a, 1b, 2, 6, 37, 62, London, SARS-yellow, SARS-green); assay type: binding, human; parameters: Binding of serum 6 to linear peptides of protein X1 of SARS-CoV Urbani / Binding of serum 37 to linear peptides of protein X1 of SARS-CoV Urbani / Binding of serum 6 to looped/cyclic peptide (PEPSCAN-ELISA) / Binding of serum 37 to looped/cyclic peptide (PEPSCAN-ELISA) / Binding of serum 37 to looped/cyclic peptides of protein X1 of SARS-CoV Urbani / Binding of serum 6 to linear peptides of protein X2 / Binding of serum 37 to linear peptides of protein X2 / Binding of serum 37 to looped/cyclic peptides of protein X2 of SARS-CoV Urbani / Binding of serum 6 to linear peptides of protein M of SARS-CoV Urbani / Binding of serum 37 to linear peptides of protein M of SARS-CoV Urbani / Binding of serum 6 to looped/cyclic peptides of protein M of SARS-CoV Urbani / Binding of serum 37 to looped/cyclic peptides of protein M of SARS-CoV Urbani / Binding of serum 6 to linear peptides of protein X3 of SARS-CoV Urbani / Binding of serum 37 to linear peptides of protein X3 of SARS-CoV Urbani / Binding of serum 37 to looped/cyclic peptides of protein X3 of SARS-CoV Urbani / Binding of serum 6 to linear peptides of protein X4 of SARS-CoV Urbani / Binding of serum 37 to linear peptides of protein X4 of SARS-CoV Urbani / Binding of serum 37 to looped/cyclic peptides of protein X4 of SARS-CoV Urbani / Binding of serum 6 to linear peptides of protein X5 of SARS-CoV Urbani / Binding of serum 37 to linear peptides of protein X5 of SARS-CoV Urbani / Binding of serum 37 to looped/cyclic peptides of protein X5 of SARS-CoV Urbani / Binding of serum 6 to linear peptides of protein N of SARS-CoV Urbani / Binding of serum 37 to linear peptides of protein N of SARS-CoV Urbani / Binding of serum 6 to linear peptide (PEPSCAN-ELISA) / Binding of serum 1a to looped/cyclic peptides of protein N of SARS-CoV Urbani / Binding of serum 1b to looped/cyclic peptides of protein N of SARS-CoV Urbani / Binding of serum 2 to looped/cyclic peptides of protein N of SARS-CoV Urbani / Binding of serum 6 to looped/cyclic peptides of protein N of SARS-CoV Urbani / Binding of serum 37 to looped/cyclic peptides of protein N of SARS-CoV Urbani / Binding of serum 62 to looped/cyclic peptides of protein N of SARS-CoV Urbani / Binding of serum London to looped/cyclic peptides of protein N of SARS-CoV Urbani / Binding of serum SARS-green to looped/cyclic peptides of protein N of SARS-CoV Urbani: unit not given here
[3] = test system: control sera (pooled serum of ten healthy LUMC hospital workers; commercial negative donor pooled serum from the Dutch bloodbank); assay type: binding, human; parameters: Binding of Control serum LUMC to linear peptides / Binding of Control serum Blood-bank to linear peptides / Binding of Control serum LUMC to looped peptides / Binding of Control Serum Blood-Bank to Looped peptides / Binding of Control serum LUMC to linear peptides of the protein M of SARS-CoV Urbani / Binding of Control serum Blood-bank to linear peptides of the protein M of SARS-CoV Urbani / Binding of Control serum LUMC to looped peptides of the protein M of SARS-CoV Urbani / Binding of Control Serum Blood-Bank to Looped peptides of the protein M of SARS-CoV Urbani: unit not given here
[4] = test system: rabbit serum obtained by immunizing a rabbit with the SARS-CoV strain Frankfurt 1; assay type: binding; parameters: Binding of a rabbit serum to linear peptides / Binding of a rabbit serum to looped peptides / Rabbit serum linear peptides / Rabbit serum looped peptides / Binding of a rabbit serum to linear peptides of protein N of SARS-CoV Urbani (Rabbit serum linear peptides) / Binding of a rabbit serum to looped/cyclic peptides of protein N of SARS-CoV Urbani (Rabbit serum looped peptides): unit not given here

Sequence	Binding of antibody 03-018 to linear peptides of the N protein of SARS-CoV Urbani [1]	Binding of antibody 03-018 to looped/cyclic peptides of the N protein of SARS-CoV Urbani [1]	Binding of serum 1a to looped/cyclic peptides of protein N of SARS-CoV Urbani [2]	Binding of serum 1b to looped/cyclic peptides of protein N of SARS-CoV Urbani [2]	Binding of serum 2 to looped/cyclic peptides of protein N of SARS-CoV Urbani [2]	Binding of serum 6 to looped/cyclic peptides of protein N of SARS-CoV Urbani [2]	Binding of serum 37 to looped/cyclic peptides of protein N of SARS-CoV Urbani [2]	Binding of serum 62 to looped/cyclic peptides of protein N of SARS-CoV Urbani [2]	Binding of serum London to looped/cyclic peptides of protein N of SARS-CoV Urbani [2]	Binding of serum SARS-green to looped/cyclic peptides of protein N of SARS-CoV Urbani [2]	Binding of serum SARS-yellow to looped/cyclic peptides of protein N of SARS-CoV Urbani [2]	Binding of Control Serum Blood-Bank to Looped peptides [3]	Binding of Control serum Blood-bank to linear peptides [3]	Binding of Control serum LUMC to linear peptides [3]	Binding of Control serum LUMC to looped peptides [3]	Binding of a rabbit serum to linear peptides of protein N of SARS-CoV Urbani (Rabbit serum linear peptides) [4]	Binding of a rabbit serum to looped/cyclic peptides of protein N of SARS-CoV Urbani (Rabbit serum looped peptides) [4]	other results
EQTQGNFGDQDLIRQ	0.1	0.0	0.3	0.1	0.4	0.3	0.2	0.3	0.3	1.3	0.3	0.6	1.0	1.0	0.6	0.2	0.0	Recognition of the peptide by sera of SARS-CoV infected individuals, and form (linear, looped/cyclic) in which it is recognized [2]: recognized in linear form
WYFYYLGTGPEASLP	0.1	0.2	0.4	0.3	0.4	0.3	0.7	0.5	0.4	0.4	0.5	0.6	0.7	0.6	0.6	0.1	0.3	Binding of serum 1a to linear peptides of protein N of SARS-CoV Urbani [2]: 0.3; Binding of serum 1b to linear peptides of protein N of SARS-CoV Urbani [2]: 0.2; Binding of serum 2 to linear peptides of protein N of SARS-CoV Urbani [2]: 0.3; Binding of serum 6 to linear peptides of protein N of SARS-CoV Urbani [2]: 0.2; Binding of serum 37 to linear peptides of protein N of SARS-CoV Urbani [2]: 0.9; Binding of serum 62 to linear peptides of protein N of SARS-CoV Urbani [2]: 0.8; Binding of serum London to linear peptides of protein N of SARS-CoV Urbani [2]: 0.5; Binding of serum SARS-green to linear peptides of protein N of SARS-CoV Urbani [2]: 0.3; Binding of serum SARS-yellow to linear peptides of protein N of SARS-CoV Urbani [2]: 0.7
NQLESKVSGKGQQQQ	0.1	0.3	0.4	0.2	0.5	0.3	0.6	0.5	0.5	0.3	0.6	0.7	0.8	0.9	0.7	0.2	0.5	Binding of serum 1a to linear peptide (PEPSCAN-ELISA) [2]: 0.3; Binding of serum 1b to linear peptide (PEPSCAN-ELISA) [2]: 0.2; Binding of serum 2 to linear peptide (PEPSCAN-ELISA) [2]: 0.3; Binding of serum 6 to linear peptide (PEPSCAN-ELISA) [2]: 0.2; Binding of serum 37 to linear peptide (PEPSCAN-ELISA) [2]: 0.7; Binding of serum 62 to linear peptide (PEPSCAN-ELISA) [2]: 0.8; Binding of serum London to linear peptide (PEPSCAN-ELISA) [2]: 0.6; Binding of serum SARS-green to linear peptide (PEPSCAN-ELISA) [2]: 0.5; Binding of serum SARS-yellow to linear peptide (PEPSCAN-ELISA) [2]: 0.7
